“Also recorded” adds a separate entry of the source.
Assays:
[1] = tested on: bleomycin-induced pulmonary fibrosis model, wild-type male C57BL/6N mice; assay: Bleomycin-induced pulmonary fibrosis model, wild-type C57BL/6N mice; assay type: in vivo, mouse; details: transpulmonary bleomycin, 3 mg/kg oral two times/day to day 21, vs medium-administered group
Protocol: (§1) Wild-type and LPA3 receptor-deficient male C57BL/6N mice (Oriental BioService, Inc., the week age at the start of the experiment: 13-week old) were used. Bleomycin hydrochloride (Nippon Kayaku Co., Ltd.) was dissolved in physiological saline (Otsuka Pharmaceutical Factory, Inc.) to prepare a 0.41-mg/mL solution. The bleomycin solution thus prepared was administered to each of the mice at a dosage volume of 75 μL through a transpulmonary route. For a normal group, physiological saline was administered at a dosage volume of 75 μL through a transpulmonary route.
On the day of first administration of bleomycin, the body weights were measured, and the mice were divided into groups equally in such a manner that a significant difference was not observed in the average values of the body weights among the groups. After the grouping, the administration of a test substance or the medium started, and the administration was performed repeatedly through an oral route at a frequency of two times/day from the day of the first administration of bleomycin to day 21. The volume of a solution to be administered was calculated on the basis of the body weight of each of the mice. […]

[2] = tested on: bleomycin-induced pulmonary fibrosis models produced using male ICR mice; assay: Bleomycin-induced pulmonary fibrosis model, male ICR mice; assay type: in vivo, mouse; details: bleomycin i.v. 5 days, 0.3, 1, 3 mg/kg oral two times/day to day 28, vs medium-administered group
Protocol: Male ICR mice (Charles River Laboratories Japan, Inc., the week age at the start of experiment: 12-week old) were used. Bleomycin hydrochloride (Nippon Kayaku Co., Ltd.) was dissolved in physiological saline (Otsuka Pharmaceutical Factory, Inc.) to prepare a 3-mg/mL solution. The bleomycin solution thus prepared was administered into a tail vein of each of the mice at a dosage volume of 5 mL/kg at a frequency of 1 time/day for 5 days. For a normal group, physiological saline was administered into a tail vein at a dosage volume of 5 mL/kg at a frequency of 1 time/day for 5 days.
On the day of first administration of bleomycin, the body weights were measured, and the mice were divided into groups equally in such a manner that a significant difference was not observed in the average values of the body weights among the groups. After the grouping, the administration of a test substance or the medium started, and the administration was performed repeatedly through oral route at a frequency of two times/day from the day of the first administration of bleomycin to day 28. The volume of a solution to be administered was calculated on the basis of the body weight of each of the mice.
On the next day of the day of the final administration, each of the animals was subjected to the opening of the abdominal cavity under the anesthesia with 2% isoflurane, and then the abdomen aorta in each of the mice was dissected to bleed to death. After the bleeding to death, the right lung was excised, and the lung wet weight was measured. Subsequently, the tissues of the right lung were dried with a dry-heat sterilizer, and the dry weight of the right lung was measured. […] The weight of the product after the neutralization was measured to calculate the amount (g) of the sample after the neutralization. […]
A chloramine T reagent (1 mL) was added to an HYP standard solution (2 mL), the resultant mixture was left to stand for 20 minutes at room temperature, then a perchloric acid reagent (1 mL) was added to the solution, and then the resultant mixture was left to stand for 5 minutes at room temperature. A p-dimethylaminobenzaldehyde reagent (1 mL) was added to the solution, then the resultant mixture was warmed to 60° C. for 20 minutes, and then the absorbance of a supernatant produced by the filtration of the mixture through a filter was measured at 557 nm with a spectrophotometer to produce a standard curve.
With respect to each of the HYP content measurement samples (2 mL), the measurement of the absorbance was performed in the same manner as mentioned above, and then the HYP content (μg/mL) was calculated on the basis of the standard curve. […] The HYP amount in the right lung (μg/Lung) was calculated in accordance with the following equation. […]

human LPA1 receptor = human LPA1 receptor (Homo sapiens, UniProt Q92633); assay: LPA1 agonistic activity measurement in receptor-expressing cell strain; assay type: cell-based; details: cell strain stably expressing human LPA1 receptor
Sequence of human LPA1 receptor (Q92633 whole entry): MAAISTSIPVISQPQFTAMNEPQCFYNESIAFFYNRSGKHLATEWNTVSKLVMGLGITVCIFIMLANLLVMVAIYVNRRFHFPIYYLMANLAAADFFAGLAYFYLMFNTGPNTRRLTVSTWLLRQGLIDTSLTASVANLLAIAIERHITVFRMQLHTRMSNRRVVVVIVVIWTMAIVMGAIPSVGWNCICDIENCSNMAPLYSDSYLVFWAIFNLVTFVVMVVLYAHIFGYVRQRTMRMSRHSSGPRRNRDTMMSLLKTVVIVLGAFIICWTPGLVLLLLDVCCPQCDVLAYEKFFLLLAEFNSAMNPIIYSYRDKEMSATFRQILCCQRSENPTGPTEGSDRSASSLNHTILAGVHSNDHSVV

[3] = tested on: bleomycin-induced pulmonary fibrosis models produced using LPA3 receptor-deficient C57BL/6N mice; assay: Bleomycin-induced pulmonary fibrosis model, LPA3 receptor-deficient C57BL/6N mice; assay type: in vivo, mouse; details: transpulmonary bleomycin, 3 mg/kg oral two times/day to day 21, vs medium-administered group
Protocol: as §1
On the day of first administration of bleomycin, the body weights were measured, and the mice were divided into groups equally in such a manner that a significant difference was not observed in the average values of the body weights among the groups. After the grouping, the administration of a test substance or the medium started, and the administration was performed repeatedly through an oral route at a frequency of two times/day from the day of the first administration of bleomycin to day 21. The volume of a solution to be administered was calculated on the basis of the body weight of each of the mice.
On the next day of the day of the final administration, each of the animals was subjected to the opening of the abdominal cavity under the anesthesia with a three types of mixed anesthetic agent (the intraperitoneal administration of 0.3 mg/10 mL/kg of medetomidine, 4 mg/10 mL/kg of midazolam, and 5 mg/10 mL/kg of butorphanol), and then the abdomen aorta in each of the animals was dissected to bleed to death. After the bleeding to death, the lung was excised, and the lung wet weight was measured. Subsequently, the lung was frozen. The frozen lung was homogenized, and then 11.2-N hydrochloric acid (200 μL) was added to a homogenate solution to hydrolyze the homogenate solution at about 120° C. for 34 hours. The content of hydroxyproline in the solution after the hydrolysis was measured using a hydroxyproline quantification kit (BioVision, Inc.).

LPA2 receptor = LPA2 receptor (Homo sapiens, UniProt Q9HBW0); assay: LPA2 agonistic activity measurement in receptor-expressing cell strain; assay type: cell-based; details: cell strain stably expressing LPA2 receptor
Sequence of LPA2 receptor (Q9HBW0 whole entry): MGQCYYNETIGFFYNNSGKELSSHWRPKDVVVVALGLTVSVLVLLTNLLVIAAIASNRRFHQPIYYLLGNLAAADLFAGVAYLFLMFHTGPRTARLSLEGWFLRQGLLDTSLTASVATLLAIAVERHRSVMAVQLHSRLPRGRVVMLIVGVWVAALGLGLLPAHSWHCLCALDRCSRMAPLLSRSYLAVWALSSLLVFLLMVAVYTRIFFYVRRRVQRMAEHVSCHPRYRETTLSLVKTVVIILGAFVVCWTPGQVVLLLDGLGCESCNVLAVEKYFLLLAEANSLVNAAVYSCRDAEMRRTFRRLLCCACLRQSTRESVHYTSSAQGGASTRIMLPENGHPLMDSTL

EC50 (human LPA1 receptor): > 10 µM
EC50 (LPA2 receptor): > 10 µM
SMILES: Cc1ccc(Cn2c(C(=O)O)c(CNC3CCC3)c3ccccc32)cc1 [Compound I, 3-[(Cyclobutylamino)methyl]-1-(4-methylbenzyl)-1H-indol-2-carboxylic acid]
lung weight ([1]; FIG. 3): smaller compared with those in the medium-administered group
HYP amount in the lung ([1]; FIG. 4): smaller compared with those in the medium-administered group
weight of the right lung ([2]; FIG. 1): significantly prevented the increase; also recorded: prevents the increase in the weight of the lung
weight of the right lung ([2]; FIG. 1, listed as Example 1): lower compared with those in the medium-administered group
HYP (hydroxyproline) amount in the right lung ([2]; FIG. 2): significantly prevented the increase; also recorded: prevents the increase in the amount of hydroxyproline
HYP (hydroxyproline) amount in the right lung ([2]; FIG. 2, listed as Example 1): lower compared with those in the medium-administered group
lung weight ([3]; FIG. 3, 3 mg/kg): does not prevent the increase in the weight of the lung
lung weight ([3]; FIG. 3, listed as Example 1, 3 mg/kg): did not show significant difference compared with those in the medium-administered group
HYP amount in the lung ([3]; FIG. 4, 3 mg/kg): does not prevent the increase in the amount of hydroxyproline
HYP amount in the lung ([3]; FIG. 4, listed as Example 1, 3 mg/kg): did not show significant difference compared with those in the medium-administered group

— patent publication US20230310376A1, “PROPHYLACTIC AND/OR THERAPEUTIC AGENT FOR IDIOPATHIC PULMONARY FIBROSIS” (ONO PHARMACEUTICAL CO., LTD., priority 2020, published 2023)
